Assay results from US7138361B2, “Herbicidal heterocycles” (E. I. du Pont de Nemours and Company, priority 2000, dated 2006).

Columns and labels:
Format in all cases: in vivo
[1] = test system: crabgrass (Digitaria sanguinalis); assay: Test B postemergence
In short: (§1)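 Seeds were planted and sprayed preemergence with test chemical in a non-phytotoxic solvent mixture containing surfactant; postemergence plants (2 to 18 cm, 1- to 4-leaf stage) received the same formulation. Greenhouse hold 13 to 15 days, then visual rating versus untreated controls on a 0–100 scale (0 no effect, 100 complete control).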

[2] = test system: barnyardgrass (Echinochloa crus-galli); assay: Test B postemergence
In short: as §1

[3] = test system: cocklebur (Xanthium strumarium); assay: Test B postemergence
In short: as §1

[4] = test system: pigweed (Amaranthus retroflexus); assay: Test B postemergence
In short: as §1

[5] = test system: morning glory (Ipomoea hederacea); assay: Test B postemergence
In short: as §1

[6] = test system: lambsquarters (Chenopodium album); assay: Test B postemergence
In short: as §1

[7] = test system: giant foxtail (Setaria faberii); assay: Test B postemergence
In short: as §1

[8] = test system: Surinam grass (Brachiaria decumbens); assay: Test B postemergence
In short: as §1

[9] = test system: barnyardgrass (Echinochloa crus-galli); assay: Test C flooded paddy test; conditions: for Barnyardgrass plant response rating: Flooded Paddy, scale 0 to 100, 0 no effect, 100 complete control; for Plant response rating, Barnyardgrass / Plant response rating (scale 0 to 100), Barnyardgrass: flooded paddy test; for Plant response rating, Barnyardgrass: scale 0 to 100 (0 no effect, 100 complete control)
In short: (§2)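 Flooded paddy, 2-leaf stage at treatment. Readout: visual % control vs untreated, 0–100, at 12–14 d in greenhouse.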

[10] = test system: smallflower flatsedge (Cyperus difformis); assay: Test C flooded paddy test; conditions: for Flatsedge plant response rating: Flooded Paddy, scale 0 to 100, 0 no effect, 100 complete control; for Plant response rating, Flatsedge / Plant response rating (scale 0 to 100), Flatsedge: flooded paddy test; for Plant response rating, Flatsedge: scale 0 to 100 (0 no effect, 100 complete control)
In short: as §2

[11] = test system: rice (Oryza saliva); assay: Test C flooded paddy test; conditions: for Rice plant response rating: Flooded Paddy, scale 0 to 100, 0 no effect, 100 complete control; for Plant response rating, Rice / Plant response rating (scale 0 to 100), Rice: flooded paddy test; for Plant response rating, Rice: scale 0 to 100 (0 no effect, 100 complete control)
In short: as §2

[12] = test system: duck salad (Heteranthera limosa); assay: Test C flooded paddy test; conditions: for Ducksalad plant response rating: Flooded Paddy, scale 0 to 100, 0 no effect, 100 complete control; for Plant response rating, Ducksalad / Plant response rating (scale 0 to 100), Ducksalad: flooded paddy test; for Plant response rating, Ducksalad: scale 0 to 100 (0 no effect, 100 complete control)
In short: as §2

[13] = test system: Nightshade; assay: Test C preemergence; conditions: Rate 500 g/ha, visual evaluation after 12 to 14 days
[14] = test system: Sunflower; assay: Test C preemergence; conditions: Rate 62 g/ha, scale 0 to 100
[15] = test system: crabgrass (Digitaria sanguinalis); assay: Test B preemergence
In short: as §1

[16] = test system: barnyardgrass (Echinochloa crus-galli); assay: Test B preemergence
In short: as §1

[17] = test system: corn (Zea mays); assay: Test B preemergence
In short: as §1

[18] = test system: rice (Oryza saliva); assay: Test B preemergence
In short: as §1

[19] = test system: cocklebur (Xanthium strumarium); assay: Test B preemergence
In short: as §1

[20] = test system: pigweed (Amaranthus retroflexus); assay: Test B preemergence
In short: as §1

[21] = test system: morning glory (Ipomoea hederacea); assay: Test B preemergence
In short: as §1

[22] = test system: lambsquarters (Chenopodium album); assay: Test B preemergence
In short: as §1

[23] = test system: giant foxtail (Setaria faberii); assay: Test B preemergence
In short: as §1

[24] = test system: Surinam grass (Brachiaria decumbens); assay: Test B preemergence
In short: as §1

[25] = test system: velvetleaf (Abutilon theophrasti); assay: Test B preemergence
In short: as §1

[26] = test system: Sunflower; assay: Test C preemergence; conditions: Rate 250 g/ha, scale 0 to 100, 0 no effect, 100 complete control
[27] = Rate 125 g/ha, scale 0 to 100, 0 no effect, 100 complete control
[28] = Rate 500 g/ha, scale 0 (no effect) to 100 (complete control), 13 to 15 days
[29] = Rate 62 g/ha, visually evaluated after 12 to 14 days, 0 = no effect, 100 = complete control
[30] = Preemergence, Rate 500 g/ha, scale 0 to 100, 0 no effect, 100 complete control
[31] = preemergence, Rate 125 g/ha, scale of 0 to 100 where 0 is no effect and 100 is complete control, 13 to 15 days
[32] = Rate 500 g/ha, scale 0 to 100, 0 is no effect, 100 is complete control, 13 to 15 days
[33] = Rate 16 g/ha, visually evaluated after 12 to 14 days, 0 = no effect, 100 = complete control
[34] = under head Rate 16 g/ha, (own rate not given), after 12 to 14 days

## CCC(C)c1ccn(C2CCN(c3ccc(Br)c(OC)c3)C2=O)n1 (centres unmarked) [Compound 142]
[1]; [27]
  Plant response rating, Crabgrass: 40
[1]; [28]
  Plant response rating, Crabgrass: 60
[2]; [27]
  Plant response rating, Barnyardgrass: 0
[2]; [28]
  Plant response rating, Barnyardgrass: 60
[3]; [27]
  Plant response rating, Cocklebur: 60
[3]; [28]
  Plant response rating, Cocklebur: 90
[4]; [27]
  Plant response rating, Pigweed: 60
[4]; [28]
  Plant response rating, Pigweed: 80
[5]; [27]
  Plant response rating, Morningglory: 70
[5]; [28]
  Plant response rating, Morningglory: 100
[6]; [27]
  Plant response rating, Lambsquarters: 70
[6]; [28]
  Plant response rating, Lambsquarters: 100
[7]; [27]
  Plant response rating, Foxtail, Giant: 30
[7]; [28]
  Plant response rating, Foxtail, Giant: 90
[8]; [27]
  Plant response rating, Surinam grass: 0
[8]; [28]
  Plant response rating, Surinam grass: 0
[9]; Rate 500 g/ha
  Barnyardgrass plant response rating: 100
[9]; Rate 125 g/ha
  Plant response rating, Barnyardgrass: 100
[9]; Rate 250 g/ha
  Plant response rating, Barnyardgrass: 100
[9]; [29]
  Plant response rating (scale 0 to 100), Barnyardgrass: 80
[10]; Rate 500 g/ha
  Flatsedge plant response rating: 95
[10]; Rate 125 g/ha
  Plant response rating, Flatsedge: 95
[10]; Rate 250 g/ha
  Plant response rating, Flatsedge: 95
[10]; [29]
  Plant response rating (scale 0 to 100), Flatsedge: 95
[11]; Rate 500 g/ha
  Rice plant response rating: 55
[11]; Rate 125 g/ha
  Plant response rating, Rice: 25
[11]; Rate 250 g/ha
  Plant response rating, Rice: 45
[11]; [29]
  Plant response rating (scale 0 to 100), Rice: 0
[12]; Rate 500 g/ha
  Ducksalad plant response rating: 100
[12]; Rate 125 g/ha
  Plant response rating, Ducksalad: 90
[12]; Rate 250 g/ha
  Plant response rating, Ducksalad: 100
[12]; [29]
  Plant response rating (scale 0 to 100), Ducksalad: 30
[13]
  Plant response rating (0 to 100), Nightshade: 100
[14]
  Plant response rating, Sunflower: 10
[15]; [30]
  Plant response rating, Crabgrass: 100
[15]; [31]
  Plant response rating, Crabgrass: 100
[16]; [30]
  Plant response rating, Barnyardgrass: 100
[16]; [31]
  Plant response rating, Barnyardgrass: 100
[17]; [30]
  Plant response rating, Corn: 20
[17]; [31]
  Plant response rating, Corn: 0
[18]; [30]
  Plant response rating, Rice: 40
[18]; [31]
  Plant response rating, Rice: 20
[19]; [30]
  Plant response rating, Cocklebur: 60
[19]; [31]
  Plant response rating, Cocklebur: 0
[20]; [30]
  Plant response rating, Pigweed: 100
[20]; [31]
  Plant response rating, Pigweed: 100
[21]; [30]
  Plant response rating, Morningglory: 50
[21]; [31]
  Plant response rating, Morningglory: 20
[22]; [30]
  Plant response rating, Lambsquarters: 100
[22]; [31]
  Plant response rating, Lambsquarters: 100
[23]; [30]
  Plant response rating, Foxtail, Giant: 100
[23]; [31]
  Plant response rating, Foxtail, Giant: 100
[24]; [30]
  Plant response rating, Surinam grass: 100
[24]; [31]
  Plant response rating, Surinam grass: 100
[25]; [30]
  Plant response rating, Velvetleaf: 90
[25]; [31]
  Plant response rating, Velvetleaf: 20
[26]
  Plant response rating, Sunflower: 80

## CCOc1cccc(N2CCC(n3ccc(C(C)(C)C)n3)C2=O)c1 (centres unmarked) [Compound 130]
[1]; [27]
  Plant response rating, Crabgrass: 0
[2]; [27]
  Plant response rating, Barnyardgrass: 0
[2]; [32]
  Plant response rating, Barnyardgrass: 90
[3]; [27]
  Plant response rating, Cocklebur: 20
[3]; [32]
  Plant response rating, Cocklebur: 50
[4]; [27]
  Plant response rating, Pigweed: 80
[5]; [27]
  Plant response rating, Morningglory: 70
[6]; [27]
  Plant response rating, Lambsquarters: 90
[7]; [27]
  Plant response rating, Foxtail, Giant: 0
[8]; [27]
  Plant response rating, Surinam grass: 0
[8]; [32]
  Plant response rating, Surinam grass: 40
[9]; Rate 250 g/ha
  Barnyardgrass plant response rating: 100
[9]; Rate 500 g/ha
  Barnyardgrass plant response rating: 100
[9]; Rate 125 g/ha
  Plant response rating, Barnyardgrass: 100
[9]; [33]
  Plant response rating (scale 0 to 100), Barnyardgrass: 70
[9]; [29]
  Plant response rating (scale 0 to 100), Barnyardgrass: 90
[9]; [34]
  Plant response rating (scale 0 to 100), Barnyardgrass: 50
[10]; Rate 250 g/ha
  Flatsedge plant response rating: 90
[10]; Rate 500 g/ha
  Flatsedge plant response rating: 90
[10]; Rate 125 g/ha
  Plant response rating, Flatsedge: 100
[10]; [33]
  Plant response rating (scale 0 to 100), Flatsedge: 100
[10]; [29]
  Plant response rating (scale 0 to 100), Flatsedge: 90
[10]; [34]
  Plant response rating (scale 0 to 100), Flatsedge: 90
[11]; Rate 250 g/ha
  Rice plant response rating: 80
[11]; Rate 125 g/ha
  Plant response rating, Rice: 20
[11]; [33]
  Plant response rating (scale 0 to 100), Rice: 0
[11]; [29]
  Plant response rating (scale 0 to 100), Rice: 50
[11]; [34]
  Plant response rating (scale 0 to 100), Rice: 0
[12]; Rate 250 g/ha
  Ducksalad plant response rating: 90
[12]; Rate 500 g/ha
  Ducksalad plant response rating: 100
[12]; Rate 125 g/ha
  Plant response rating, Ducksalad: 90
[12]; [33]
  Plant response rating (scale 0 to 100), Ducksalad: 70
[12]; [29]
  Plant response rating (scale 0 to 100), Ducksalad: 90
[12]; [34]
  Plant response rating (scale 0 to 100), Ducksalad: 20
[13]
  Plant response rating (0 to 100), Nightshade: 100
[14]
  Plant response rating, Sunflower: 60
[15]; [30]
  Plant response rating, Crabgrass: 100
[15]; [31]
  Plant response rating, Crabgrass: 100
[16]; [30]
  Plant response rating, Barnyardgrass: 100
[16]; [31]
  Plant response rating, Barnyardgrass: 100
[17]; [30]
  Plant response rating, Corn: 70
[17]; [31]
  Plant response rating, Corn: 50
[18]; [30]
  Plant response rating, Rice: 100
[18]; [31]
  Plant response rating, Rice: 100
[19]; [30]
  Plant response rating, Cocklebur: 50
[19]; [31]
  Plant response rating, Cocklebur: 0
[20]; [30]
  Plant response rating, Pigweed: 100
[20]; [31]
  Plant response rating, Pigweed: 100
[21]; [30]
  Plant response rating, Morningglory: 100
[21]; [31]
  Plant response rating, Morningglory: 50
[22]; [30]
  Plant response rating, Lambsquarters: 100
[22]; [31]
  Plant response rating, Lambsquarters: 100
[23]; [30]
  Plant response rating, Foxtail, Giant: 100
[23]; [31]
  Plant response rating, Foxtail, Giant: 100
[24]; [30]
  Plant response rating, Surinam grass: 100
[24]; [31]
  Plant response rating, Surinam grass: 100
[25]; [30]
  Plant response rating, Velvetleaf: 50
[25]; [31]
  Plant response rating, Velvetleaf: 0
[26]
  Plant response rating, Sunflower: 70
